Experimental data taken from article doi:10.1101/2025.03.25.645215v1 (biorxiv, 2025).

target: T1, B^0AT2/SLC6A15 (eGFP-hSLC6A15) (Homo sapiens, UniProt Q9H2J7); assay: cell-based; parameters: species or system HEK293 eGFP-hSLC6A15; conditions: not given
T1 sequence (Q9H2J7 1-730): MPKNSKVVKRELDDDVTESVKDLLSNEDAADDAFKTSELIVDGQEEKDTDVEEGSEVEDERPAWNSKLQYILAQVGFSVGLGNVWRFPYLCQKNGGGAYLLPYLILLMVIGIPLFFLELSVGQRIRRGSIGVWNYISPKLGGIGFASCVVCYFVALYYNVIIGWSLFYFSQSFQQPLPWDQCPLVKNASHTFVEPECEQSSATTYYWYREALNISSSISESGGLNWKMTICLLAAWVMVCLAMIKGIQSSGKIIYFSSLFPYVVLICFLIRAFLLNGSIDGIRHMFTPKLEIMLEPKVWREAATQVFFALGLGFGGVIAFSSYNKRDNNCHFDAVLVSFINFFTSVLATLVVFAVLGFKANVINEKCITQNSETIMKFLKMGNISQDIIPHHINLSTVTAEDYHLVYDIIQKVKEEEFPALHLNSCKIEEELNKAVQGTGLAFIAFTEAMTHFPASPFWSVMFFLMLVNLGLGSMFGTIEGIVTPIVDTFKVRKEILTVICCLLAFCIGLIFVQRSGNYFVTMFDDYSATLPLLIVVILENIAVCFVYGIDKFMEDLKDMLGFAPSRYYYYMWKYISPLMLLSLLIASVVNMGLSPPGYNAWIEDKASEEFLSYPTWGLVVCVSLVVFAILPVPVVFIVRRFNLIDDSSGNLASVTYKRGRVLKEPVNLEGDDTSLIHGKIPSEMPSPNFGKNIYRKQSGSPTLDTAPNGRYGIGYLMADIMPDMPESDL

| SMILES | IC50 |
| --- | --- |
| COC(=O)c1ccc(C2C3=C(CC(C)(C)CC3=O)Nc3ccccc3N2C(=O)c2ccccc2)cc1 (centres unmarked) [11m] | 1800 ± 300 nM |
| CC1(C)CC(=O)C2=C(C1)Nc1ccccc1N(C(=O)c1ccccc1)C2c1ccc(F)cc1 (centres unmarked) [11b] | 2000 ± 200 nM |
| CCCCCOc1ccc(C2C3=C(CC(C)(C)CC3=O)Nc3ccccc3N2C(=O)c2ccccc2)cc1 (centres unmarked) [11j] | 1200 ± 100 nM |
| CC1(C)CC(=O)C2=C(C1)Nc1ccccc1N(C(=O)c1ccccc1)C2c1ccccc1F (centres unmarked) [11s] | 19900 ± 8900 nM |
| CCCOc1ccc(C2C3=C(CC(C)(C)CC3=O)Nc3ccccc3N2C(=O)c2ccccc2)cc1OC (centres unmarked) [11y] | 1100 ± 100 nM |
| CC1(C)CC(=O)C2=C(C1)Nc1ccccc1N(C(=O)c1ccccc1)C2c1cccc(F)c1 (centres unmarked) [11o] | 22900 ± 14700 nM |
| CC1(C)CC(=O)C2=C(C1)Nc1ccccc1N(C(=O)c1ccccc1)C2c1ccc(C#N)cc1 (centres unmarked) [11e] | 730 ± 40 nM |
| CCCOc1cccc(C2C3=C(CC(C)(C)CC3=O)Nc3ccccc3N2C(=O)c2ccccc2)c1 (centres unmarked) [11q] | 720 ± 70 nM |
| CC1(C)CC(=O)C2=C(C1)Nc1ccccc1N(C(=O)c1ccccc1)C2c1ccc(Cl)cc1 (centres unmarked) [11c] | 900 ± 100 nM |
| COc1cccc(C2C3=C(CC(C)(C)CC3=O)Nc3ccccc3N2C(=O)c2ccccc2)c1 (centres unmarked) [11p] | 3200 ± 500 nM |
| CCOc1ccc(C2C3=C(CC(C)(C)CC3=O)Nc3ccccc3N2C(=O)c2ccccc2)cc1 (centres unmarked) [11g] | 500 ± 50 nM |
| CC1(C)CC(=O)C2=C(C1)Nc1ccccc1N(C(=O)c1ccccc1)C2c1ccc(Cl)c(Cl)c1 (centres unmarked) [11z] | 2300 ± 400 nM |
| CCCCOc1ccc(C2C3=C(CC(C)(C)CC3=O)Nc3ccccc3N2C(=O)c2ccccc2)cc1 (centres unmarked) [11i] | 580 ± 30 nM |
| CC1(C)CC(=O)C2=C(C1)Nc1ccccc1N(C(=O)c1ccccc1)C2c1ccc(C(F)(F)F)cc1 (centres unmarked) [11k] | 2000 ± 200 nM |
| COc1ccc(C2C3=C(CC(C)(C)CC3=O)Nc3ccccc3N2C(=O)c2ccccc2)cc1 (centres unmarked) [11f] | 400 ± 30 nM |
| CC1(C)CC(=O)C2=C(C1)Nc1ccccc1N(C(=O)c1ccccc1)C2c1ccccc1 (centres unmarked) [11a] | 1200 ± 100 nM |
| COc1cc(C2C3=C(CC(C)(C)CC3=O)Nc3ccccc3N2C(=O)c2ccccc2)ccc1O (centres unmarked) [11v] | 240 ± 20 nM |
| CC1(C)CC(=O)C2=C(C1)Nc1ccccc1N(C(=O)c1ccccc1)C2c1ccccc1Cl (centres unmarked) [11t] | > 40000 nM |
| COc1ccccc1C1C2=C(CC(C)(C)CC2=O)Nc2ccccc2N1C(=O)c1ccccc1 (centres unmarked) [11u] | > 60000 nM |
| CC(C)Oc1ccc(C2C3=C(CC(C)(C)CC3=O)Nc3ccccc3N2C(=O)c2ccccc2)cc1 (centres unmarked) [11h] | 1100 ± 100 nM |
| CCOc1cc(C2C3=C(CC(C)(C)CC3=O)Nc3ccccc3N2C(=O)c2ccccc2)ccc1OCc1ccc(Cl)cc1 (centres unmarked) [11aa] | > 80000 nM |
| CN(C)c1ccc(C2C3=C(CC(C)(C)CC3=O)Nc3ccccc3N2C(=O)c2ccccc2)cc1 (centres unmarked) [11l] | 10600 ± 1700 nM |
| COc1ccc(C2C3=C(CC(C)(C)CC3=O)Nc3ccccc3N2C(=O)c2ccccc2)cc1OC (centres unmarked) [11w] | 7100 ± 2300 nM |
| CC1(C)CC(=O)C2=C(C1)Nc1ccccc1N(C(=O)c1ccccc1)C2c1ccc(Br)cc1 (centres unmarked) [11d] | 740 ± 70 nM |
| COc1cc(C2C3=C(CC(C)(C)CC3=O)Nc3ccccc3N2C(=O)c2ccccc2)cc(OC)c1OC (centres unmarked) [11ab] | 11300 ± 14900 nM |
| CC(=O)Oc1cccc(C2C3=C(CC(C)(C)CC3=O)Nc3ccccc3N2C(=O)c2ccccc2)c1 (centres unmarked) [11r] | 640 ± 70 nM |

same assay, conditions: read-out: B^0AT2 IC50; inhibitor

| SMILES | IC50 |
| --- | --- |
| COc1c(Cl)cc(Cl)cc1C1C2=C(CC(C)(C)CC2=O)Nc2ccccc2N1C(=O)c1ccccc1 (centres unmarked) [11ac] | > 80000 nM |

target: T1, B^0AT2/SLC6A15 (eGFP-hSLC6A15); assay: cell-based; parameters: species or system HEK293 eGFP-hSLC6A15; conditions: not given; remark: another data set of the same source

| SMILES | IC50 |
| --- | --- |
| Cc1ccc(C2C3=C(CC(c4ccccc4F)CC3=O)Nc3ccccc3N2C(=O)c2ccccc2)cc1 (centres unmarked) [14l] | > 80000 nM |
| O=C1CC(c2ccccc2)CC2=C1C(c1ccccc1)N(C(=O)c1ccccc1)c1ccccc1N2 (centres unmarked) [14a] | 1100 ± 100 nM |
| COc1cccc(C2C3=C(CC(c4ccccc4)CC3=O)Nc3ccccc3N2C(=O)c2ccccc2)c1 (centres unmarked) [14h] | > 80000 nM |
| Cc1ccc(C2C3=C(CC(c4ccc(Cl)cc4)CC3=O)Nc3ccccc3N2C(=O)c2ccccc2)cc1 (centres unmarked) [14j] | > 80000 nM |
| COc1ccc(C2CC(=O)C3=C(C2)Nc2ccccc2N(C(=O)c2ccccc2)C3c2cccc(OC)c2)cc1 (centres unmarked) [14i] | > 80000 nM |
| COc1ccc(C2C3=C(CC(c4ccc(C)cc4)CC3=O)Nc3ccccc3N2C(=O)c2ccccc2)cc1OC (centres unmarked) [14g] | 2100 ± 500 nM |
| Cc1ccc(C2C3=C(CC(c4cccc(Cl)c4)CC3=O)Nc3ccccc3N2C(=O)c2ccccc2)cc1 (centres unmarked) [14k] | > 80000 nM |
| COc1ccc(C2CC(=O)C3=C(C2)Nc2ccccc2N(C(=O)c2ccccc2)C3c2ccc(OC)cc2)cc1 (centres unmarked) [14e] | 1200 ± 200 nM |
| CC1CC(=O)C2=C(C1)Nc1ccccc1N(C(=O)c1ccccc1)C2c1cc(F)cc(F)c1 (centres unmarked) [14m] | 700 ± 50 nM |
| COc1ccc(C2CC(=O)C3=C(C2)Nc2ccccc2N(C(=O)c2ccccc2)C3c2ccccc2)cc1 (centres unmarked) [14b] | 1000 ± 100 nM |

target: GAT1 (hGAT1) (Homo sapiens, UniProt P30531); assay: 3H-GABA uptake inhibition, HEK293, 384-well; assay type: cell-based; conditions: not given
Sequence (P30531 whole entry): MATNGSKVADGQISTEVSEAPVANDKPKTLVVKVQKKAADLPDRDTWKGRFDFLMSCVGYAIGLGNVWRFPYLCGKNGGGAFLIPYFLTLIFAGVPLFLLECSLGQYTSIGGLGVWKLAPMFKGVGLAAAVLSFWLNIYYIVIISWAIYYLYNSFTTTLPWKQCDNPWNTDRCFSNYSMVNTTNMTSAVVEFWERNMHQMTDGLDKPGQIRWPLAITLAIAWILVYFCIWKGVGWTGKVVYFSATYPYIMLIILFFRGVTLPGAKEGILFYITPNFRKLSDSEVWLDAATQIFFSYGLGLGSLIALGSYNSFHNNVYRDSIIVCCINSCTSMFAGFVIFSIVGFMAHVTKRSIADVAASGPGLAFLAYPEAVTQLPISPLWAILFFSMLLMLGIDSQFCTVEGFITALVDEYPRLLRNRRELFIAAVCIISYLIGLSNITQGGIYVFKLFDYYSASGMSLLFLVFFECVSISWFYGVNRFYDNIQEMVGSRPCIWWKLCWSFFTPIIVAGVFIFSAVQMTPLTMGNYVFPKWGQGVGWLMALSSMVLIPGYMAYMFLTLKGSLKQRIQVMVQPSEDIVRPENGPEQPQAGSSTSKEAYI

| SMILES | IC50 |
| --- | --- |
| COc1cc(C2C3=C(CC(C)(C)CC3=O)Nc3ccccc3N2C(=O)c2ccccc2)ccc1O (centres unmarked) [11v] | > 80000 nM |

target: SERT (hSERT) (Homo sapiens, UniProt P31645); assay: 3H-5HT uptake inhibition, HEK293, 384-well; assay type: cell-based; conditions: not given
Sequence (P31645 whole entry): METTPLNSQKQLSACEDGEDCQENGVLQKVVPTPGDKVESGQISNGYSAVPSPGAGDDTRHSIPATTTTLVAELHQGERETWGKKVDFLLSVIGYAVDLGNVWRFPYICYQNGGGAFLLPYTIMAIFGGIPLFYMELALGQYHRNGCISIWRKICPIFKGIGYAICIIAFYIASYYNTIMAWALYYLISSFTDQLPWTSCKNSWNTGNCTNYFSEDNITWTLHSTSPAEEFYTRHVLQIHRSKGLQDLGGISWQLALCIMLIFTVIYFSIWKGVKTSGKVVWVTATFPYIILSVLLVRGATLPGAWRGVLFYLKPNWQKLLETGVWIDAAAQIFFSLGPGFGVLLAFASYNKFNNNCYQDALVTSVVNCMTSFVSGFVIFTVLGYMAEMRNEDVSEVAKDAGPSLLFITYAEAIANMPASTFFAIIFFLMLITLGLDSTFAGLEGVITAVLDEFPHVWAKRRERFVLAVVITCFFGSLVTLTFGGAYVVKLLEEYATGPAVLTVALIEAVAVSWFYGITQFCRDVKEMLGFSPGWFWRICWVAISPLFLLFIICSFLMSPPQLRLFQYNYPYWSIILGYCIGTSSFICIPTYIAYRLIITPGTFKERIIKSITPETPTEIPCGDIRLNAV

| SMILES | IC50 |
| --- | --- |
| COc1cc(C2C3=C(CC(C)(C)CC3=O)Nc3ccccc3N2C(=O)c2ccccc2)ccc1O (centres unmarked) [11v] | > 80000 nM |

target: T1, B^0AT2/SLC6A15 (eGFP-hSLC6A15); assay: cell-based; parameters: species or system HEK293 eGFP-hSLC6A15; conditions: not given; remark: another data set of the same source

| SMILES | IC50 |
| --- | --- |
| O=C1CCCC2=C1C(c1ccco1)N(C(=O)c1ccccc1)c1ccccc1N2 (centres unmarked) [12b] | 5100 ± 2000 nM |
| O=C1CCCC2=C1C(c1cccnc1)N(C(=O)c1ccccc1)c1ccccc1N2 (centres unmarked) [12a] | 1600 ± 300 nM |
| CC1(C)CC(=O)C2=C(C1)Nc1ccccc1N(C(=O)c1ccccc1)C2c1ccccn1 (centres unmarked) [12d] | 3900 ± 800 nM |
| CC1(C)CC(=O)C2=C(C1)Nc1ccccc1N(C(=O)c1ccccc1)C2c1c[nH]c2ccccc12 (centres unmarked) [12h] | > 30000 nM |
| CC1(C)CC(=O)C2=C(C1)Nc1ccccc1N(C(=O)c1ccccc1)C2c1cccnc1 (centres unmarked) [12c] | 1900 ± 400 nM |
| Cc1ccc(C2C3=C(CC(C)(C)CC3=O)Nc3ccccc3N2C(=O)c2ccccc2)o1 (centres unmarked) [12f] | 2600 ± 200 nM |
| CC1(C)CC(=O)C2=C(C1)Nc1ccccc1N(C(=O)c1ccccc1)C2c1ccco1 (centres unmarked) [12e] | 1300 ± 100 nM |
| Cn1cccc1C1C2=C(CC(C)(C)CC2=O)Nc2ccccc2N1C(=O)c1ccccc1 (centres unmarked) [12g] | > 80000 nM |

same assay, conditions: read-out: B^0AT2 IC50; inhibitor

| SMILES | IC50 |
| --- | --- |
| CC1(C)CC(=O)C2=C(C1)Nc1ccccc1N(C(=O)c1ccccc1)C2c1ccc(-c2ccc(Br)cc2)o1 (centres unmarked) [12i] | > 80000 nM |

target: T1, B^0AT2/SLC6A15 (eGFP-hSLC6A15); assay: cell-based; parameters: species or system HEK293 eGFP-hSLC6A15; conditions: not given; remark: another data set of the same source

| SMILES | IC50 |
| --- | --- |
| O=C1CCCC2=C1C(c1ccccc1)N(C(=O)c1ccco1)c1ccccc1N2 (centres unmarked) [13l] | > 55000 nM |
| O=C1CCCC2=C1C(c1ccccc1)N(C(=O)c1ccc(Cl)cc1)c1ccccc1N2 (centres unmarked) [13h] | > 80000 nM |
| COc1ccc(C(=O)N2c3ccccc3NC3=C(C(=O)CCC3)C2c2ccccc2)cc1 (centres unmarked) [13j] | > 80000 nM |
| CC1(C)CC(=O)C2=C(C1)Nc1ccccc1NC2c1ccccc1 (centres unmarked) [13c] | > 80000 nM |
| Cc1ccc(C(=O)N2c3ccccc3NC3=C(C(=O)CCC3)C2c2ccccc2)cc1 (centres unmarked) [13i] | > 80000 nM |
| COc1cc(C2Nc3ccccc3NC3=C2C(=O)CCC3)ccc1O (centres unmarked) [13a] | > 80000 nM |
| COc1ccc(C2C3=C(CC(C)(C)CC3=O)Nc3ccccc3N2C(=O)c2ccc(Cl)cc2)cc1OC (centres unmarked) [13g] | > 80000 nM |
| CCCCOc1ccc(C2C3=C(CC(C)(C)CC3=O)Nc3ccccc3N2C(=O)c2ccccc2F)cc1 (centres unmarked) [13e] | 1400 ± 100 nM |
| COc1ccc(C2C3=C(CC(C)CC3=O)Nc3ccccc3N2C(=O)c2ccc(F)cc2)cc1 (centres unmarked) [13f] | 9000 ± 11000 nM |
| CC1(C)CC(=O)C2=C(C1)Nc1ccccc1N(Cc1ccccc1)C2c1ccccc1 (centres unmarked) [13d] | > 80000 nM |
| O=C1CCCC2=C1C(c1ccccc1)N(C(=O)C1CCCCC1)c1ccccc1N2 (centres unmarked) [13k] | > 80000 nM |
| O=C1CCCC2=C1C(c1ccccc1)N(C(=O)c1ccc3ccccc3c1)c1ccccc1N2 (centres unmarked) [13m] | > 80000 nM |

same assay, conditions: read-out: B^0AT2 IC50; inhibitor

| SMILES | IC50 |
| --- | --- |
| CCOc1cc(C2C3=C(CCCC3=O)Nc3ccccc3N2C(=O)CC)ccc1O (centres unmarked) [13b] | > 80000 nM |

test system: NTT4/SLC6A17 (NTT4-B^0AT2 chimera); assay: 3H-proline uptake inhibition, HEK293, 384-well; assay type: cell-based; conditions: blanket statement for all 1,5-benzodiazepine analogs

| SMILES | IC50 |
| --- | --- |
| COc1cc(C2C3=C(CC(C)(C)CC3=O)Nc3ccccc3N2C(=O)c2ccccc2)ccc1O (centres unmarked) [11v] | > 80000 nM |
